Assay results: the supplement of paper PMC5908809

What was measured:
Test in all cases: relative IC50 (inflection point of fitted viability curve, relative to fitted max inhibition); higher = less sensitive
Conditions in all cases: 72 h
[1] = test system: normal primary NK cells, pool 1 (3 donors), resting (IL-2 0 ng/mL)
Method: (§1)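 Drug sensitivity and resistance testing: 5 concentrations over a 10,000-fold range, 72 h at 37 °C, viability by CellTiter-Glo normalised to DMSO and benzethonium chloride controls. IC50 is the inflection point of a logistic fit (min fixed at 0, max fitted), so it is relative to the fitted maximal inhibition. Kept only where fitted max inhibition is at least 50%.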

[2] = test system: normal primary NK cells, pool 2 (3 donors) (IL-2 2.5 ng/mL)
Method: as §1

YT (IL-2 2.5 ng/mL) = test system: YT (IL-2 2.5 ng/mL)
Method: as §1

[3] = test system: normal primary NK cells, pool 1 (3 donors) (IL-2 2.5 ng/mL)
Method: as §1

NK-92 (IL-2 2.5 ng/mL) = test system: NK-92 (IL-2 2.5 ng/mL)
Method: as §1

IMC-1 (IL-2 20 ng/mL) = test system: IMC-1 (IL-2 20 ng/mL)
Method: as §1

[4] = test system: normal primary NK cells, pool 3 (3 donors) (IL-2 2.5 ng/mL)
Method: as §1

NKL (IL-2 2.5 ng/mL) = test system: NKL (IL-2 2.5 ng/mL)
Method: as §1

NK-YS (IL-2 2.5 ng/mL) = test system: NK-YS (IL-2 2.5 ng/mL)
Method: as §1

KHYG-1 (IL-2 2.5 ng/mL) = test system: KHYG-1 (IL-2 2.5 ng/mL)
Method: as §1

DERL-7 (IL-2 2.5 ng/mL) = test system: DERL-7 (IL-2 2.5 ng/mL)
Method: as §1

KAI3 (IL-2 2.5 ng/mL) = test system: KAI3 (IL-2 2.5 ng/mL)
Method: as §1

SNK-6 (IL-2 2.5 ng/mL) = test system: SNK-6 (IL-2 2.5 ng/mL)
Method: as §1

SMILES | relative IC50 [1] [nM] | relative IC50 [2] [nM] | relative IC50 (YT (IL-2 2.5 ng/mL)) [nM] | relative IC50 [3] [nM] | relative IC50 (NK-92 (IL-2 2.5 ng/mL)) [nM] | relative IC50 (IMC-1 (IL-2 20 ng/mL)) [nM] | relative IC50 [4] [nM] | relative IC50 (NKL (IL-2 2.5 ng/mL)) [nM] | relative IC50 (NK-YS (IL-2 2.5 ng/mL)) [nM] | relative IC50 (KHYG-1 (IL-2 2.5 ng/mL)) [nM] | relative IC50 (DERL-7 (IL-2 2.5 ng/mL)) [nM] | relative IC50 (KAI3 (IL-2 2.5 ng/mL)) [nM] | relative IC50 (SNK-6 (IL-2 2.5 ng/mL)) [nM]
C[C@@H]1CN(CC(=O)Nc2ccc3c(c2)Cc2cccc(-c4cc(=O)cc(N5CCOCC5)o4)c2S3)C[C@H](C)O1 | 3480 | 5660 | 6110 | 5660 | 4490 | 7360 | 8100 | 3200 | 5880 | 4430 | 4940 | 4210 | 6050
CC(C)[C@H](C(=O)Nc1ccc(C(=O)NO)cc1)c1ccccc1 [AR-42] | 297 | 430 | 527 | 367 | 129 | 289 | 527 | 219 | 540 | 240 | 331 | 77.2 | 241
CN[C@@H](C)C(=O)N[C@H]1CN(C(=O)CC(C)C)CC[C@H]2CC[C@@H](C(=O)NC(c3ccccc3)c3ccccc3)N2C1=O [AT-406] | 1250 | 1410 | – | 1230 | – | – | 1690 | – | – | 1450 | – | 1920 | –
COc1cccc2c1C(=O)c1c(O)c3c(c(O)c1C2=O)C[C@@](O)(/C(CO)=N/NC(=O)CCCCCN1C(=O)C=CC1=O)C[C@@H]3O[C@H]1C[C@H](N)[C@H](O)[C@H](C)O1 [Aldoxorubicin] | 71.6 | 96.6 | 70.8 | 140 | 94.9 | 44.6 | 134 | 4.2 | 34.3 | 57.7 | 31.2 | 41.9 | 21.7
CN(C)CCN1C(=O)c2cccc3cc(N)cc(c23)C1=O [Amonafide] | 2250 | 2650 | 2140 | 3500 | 1400 | 1940 | 2410 | 1240 | 1380 | 1970 | 1760 | 1280 | 1700
CC(=O)OC[C@H]1O[C@@H]([S-])[C@H](OC(C)=O)[C@@H](OC(C)=O)[C@@H]1OC(C)=O.CCP(CC)CC.[Au+] [Auranofin] | 26.1 | 102 | 824 | 53.6 | 791 | 761 | 78.4 | 241 | 551 | 507 | 274 | 859 | 319
Nc1nc(Nc2ccc3c(c2)CC[C@@H](N2CCCC2)CC3)nn1-c1cc2c(nn1)-c1ccccc1CCC2 [BGB324] | 437 | 1070 | 2250 | 766 | 1020 | 3400 | 1620 | 533 | 2020 | 836 | 508 | 1110 | 1290
Cn1c(CCCC(=O)O)nc2cc(N(CCCl)CCCl)ccc21 [Bendamustine] | 3780 | 2960 | – | 3960 | – | – | 2330 | 1420 | 2600 | – | – | – | 1680
Cc1c(N)nc([C@H](CC(N)=O)NC[C@H](N)C(N)=O)nc1C(=O)N[C@H](C(=O)N[C@H](C)[C@@H](O)[C@H](C)C(=O)N[C@H](C(=O)NCCc1nc(-c2nc(C(=O)NCCC[S+](C)C)cs2)cs1)[C@@H](C)O)[C@@H](OC1OC(CO)C(O)C(O)C1OC1OC(CO)C(O)C(OC(N)=O)C1O)c1cnc[nH]1 (some centres undefined) [Bleomycin] | 3560 | 1510 | 1530 | 2140 | 662 | 1480 | 1150 | 1150 | 635 | 2270 | 1220 | 537 | 41.8
O=C(O)CCCc1ccc(N(CCCl)CCCl)cc1 [Chlorambucil] | 1660 | 2960 | – | 2830 | 3200 | – | 3180 | 1410 | 1930 | 3160 | – | 1620 | 2210
Nc1nc(Cl)nc2c1ncn2[C@@H]1O[C@H](CO)[C@@H](O)[C@@H]1F [Clofarabine] | 7.76 | 22.3 | 225 | 14.4 | 31.2 | 54.1 | 28 | 35.6 | 67 | 35 | 21.7 | 49.6 | 42.8
CCN(CC)CCOc1ccc(C(=C(Cl)c2ccccc2)c2ccccc2)cc1 [Clomifene] | 2170 | 1810 | 3030 | 2560 | 1710 | 2410 | 1540 | 2280 | 2280 | 2490 | 1580 | 1840 | 1730
CC1(COc2ccc3c(c2)ncn3-c2ccc3cccc(N4CCC(N)CC4)c3n2)COC1 [Crenolanib] | 3660 | 1350 | 1600 | 1640 | 998 | 2710 | 1640 | 633 | 1890 | 1820 | 984 | 2250 | 429
C[C@@H]1C[C@H]2[C@@H]3CCC4=CC(=O)C=C[C@]4(C)[C@@]3(F)[C@@H](O)C[C@]2(C)[C@@]1(O)C(=O)CO [Dexamethasone] | 4.64 | 11.8 | – | 14.1 | – | > 10000 | 28.8 | 7.41 | – | 89.3 | 8.07 | – | –
CCc1cnn2c(NCc3ccc[n+]([O-])c3)cc(N3CCCC[C@H]3CCO)nc12 [Dinaciclib] | 16.4 | 3.72 | 3.6 | 10.9 | 7.4 | 11 | 6.24 | 4.24 | 4.68 | 11.3 | 13.7 | 8.92 | 4.4
Cc1ccc(-n2nc(C(C)(C)C)cc2NC(=O)Nc2ccc(OCCN3CCOCC3)c3ccccc23)cc1 [Doramapimod] | 2920 | 3230 | – | 3690 | 1910 | – | 2980 | 370 | 1300 | 2140 | – | 362 | –
COc1cc([C@@H]2c3cc4c(cc3[C@@H](O[C@@H]3O[C@@H]5CO[C@@H](C)O[C@H]5[C@H](O)[C@H]3O)[C@H]3COC(=O)[C@H]23)OCO4)cc(OC)c1O [Etoposide] | 743 | 1920 | 1080 | 1830 | 646 | 137 | – | 47.3 | 161 | 435 | 134 | 73.2 | 615
CCCCCCCCc1ccc(CCC(N)(CO)CO)cc1 [Fingolimod] | 3330 | 1930 | 2450 | 2450 | 3260 | 2310 | 3410 | 1400 | 2280 | 2290 | 2030 | 1670 | 2060
CCCc1cc(C)[nH]c(=O)c1CNC(=O)c1cc(-c2ccnc(N3CCN(C)CC3)c2)cc2c1cnn2C(C)C [GSK343] | 2240 | > 10000 | 2890 | 2470 | 3190 | 3630 | 3690 | 3350 | 2780 | 2880 | 2420 | 2480 | 3520
CN[C@@H](C)C(=O)N[C@H](C(=O)N1CCC[C@H]1c1nc(C(=O)c2ccc(F)cc2)cs1)C1CCCCC1 [LCL161] | 2520 | 772 | – | 1040 | 2900 | – | 932 | – | – | 251 | 1390 | 2940 | –
Nc1ccccc1NC(=O)c1ccc(CNc2nccc(-c3cccnc3)n2)cc1 [Mocetinostat] | 443 | 703 | 1030 | 723 | 246 | 291 | 738 | 166 | 697 | 340 | 381 | 313 | 242
CC1(C)CCC(c2ccc(Cl)cc2)=C(CN2CCN(c3ccc(C(=O)NS(=O)(=O)c4ccc(N[C@H](CCN5CCOCC5)CSc5ccccc5)c(S(=O)(=O)C(F)(F)F)c4)cc3)CC2)C1 [Navitoclax] | 10.4 | 83 | 26.7 | 85.3 | 208 | 727 | 203 | 35.7 | 73.6 | 67.7 | 109 | 3.12 | 4.44
COc1nc(N)nc2c1ncn2[C@@H]1O[C@H](CO)[C@@H](O)[C@@H]1O [Nelarabine] | 38.6 | 322 | – | 406 | – | > 10000 | 200 | 1810 | – | – | – | 292 | –
COC[C@H](NC(=O)c1cnc(C)s1)C(=O)N[C@@H](COC)C(=O)N[C@@H](Cc1ccccc1)C(=O)[C@@]1(C)CO1 [Oprozomib] | 19.2 | 17.9 | 49.1 | 34.7 | 32.4 | 76.8 | 24.8 | 52.5 | 27.7 | 48 | 10.5 | 24.1 | 50.1
CO[C@H](C(=O)[C@@H](O)[C@@H](C)O)[C@@H]1Cc2cc3cc(O[C@H]4C[C@@H](O[C@@H]5C[C@@H](O)[C@H](O)[C@@H](C)O5)[C@H](O)[C@@H](C)O4)c(C)c(O)c3c(O)c2C(=O)[C@H]1O[C@H]1C[C@@H](O[C@@H]2C[C@@H](O)[C@@H](O[C@@H]3C[C@](C)(O)[C@H](O)[C@@H](C)O3)[C@@H](C)O2)[C@H](O)[C@@H](C)O1 [Plicamycin] | 135 | 692 | 31.6 | 136 | 220 | 730 | 785 | 37.9 | 27.7 | 44.7 | 48.2 | 84.1 | 11.7
Cc1ccc(C(=O)Nc2ccc(CN3CCN(C)CC3)c(C(F)(F)F)c2)cc1C#Cc1cnc2cccnn12 [Ponatinib] | 55.3 | 335 | 121 | 240 | 425 | > 1000 | 415 | 96.1 | – | 270 | 156 | 213 | –
O=C(CCCCCCNC(=O)c1cnc(N(c2ccccc2)c2ccccc2)nc1)NO [Rocilinostat] | 485 | 1550 | 1810 | 1100 | 1210 | 2490 | 2470 | 814 | 1620 | 1050 | 1990 | 823 | 1350
CN(N=O)C(=O)N[C@@H](C=O)[C@@H](O)[C@H](O)[C@H](O)CO [Streptozocin] | > 10000 | – | – | > 10000 | > 10000 | – | > 10000 | > 10000 | – | – | > 10000 | > 10000 | –
O=C(CCCCCCC(=O)Nc1ccccc1)NO [Vorinostat] | 394 | 1100 | 1470 | 376 | 467 | 2290 | 1980 | 384 | 1170 | 531 | 690 | – | 713
c1ccc(Cn2c(-c3ccc(OC[C@H](C4CCNCC4)n4c(-c5ccccc5)nc5ccccc54)cc3)nc3ccccc32)cc1 [deltarasin] | 1640 | 2270 | 2630 | 2880 | 1830 | 3560 | 2910 | 2110 | 2410 | 2850 | 1950 | 1770 | 3290
